Test results as given in patent publication US12448395B2 (BRISTOL-MYERS SQUIBB COMPANY, priority 2019, dated 2025).

target: T1, human TLR9 (Homo sapiens, UniProt Q9NR96); assay: TLR9 inhibition reporter assay (HEK-Blue SEAP, ODN2006 stimulation); type: cell-based; settings: HEK-Blue cells overexpressing human TLR9, ODN2006 5 nM
T1 sequence (Q9NR96 26-1032): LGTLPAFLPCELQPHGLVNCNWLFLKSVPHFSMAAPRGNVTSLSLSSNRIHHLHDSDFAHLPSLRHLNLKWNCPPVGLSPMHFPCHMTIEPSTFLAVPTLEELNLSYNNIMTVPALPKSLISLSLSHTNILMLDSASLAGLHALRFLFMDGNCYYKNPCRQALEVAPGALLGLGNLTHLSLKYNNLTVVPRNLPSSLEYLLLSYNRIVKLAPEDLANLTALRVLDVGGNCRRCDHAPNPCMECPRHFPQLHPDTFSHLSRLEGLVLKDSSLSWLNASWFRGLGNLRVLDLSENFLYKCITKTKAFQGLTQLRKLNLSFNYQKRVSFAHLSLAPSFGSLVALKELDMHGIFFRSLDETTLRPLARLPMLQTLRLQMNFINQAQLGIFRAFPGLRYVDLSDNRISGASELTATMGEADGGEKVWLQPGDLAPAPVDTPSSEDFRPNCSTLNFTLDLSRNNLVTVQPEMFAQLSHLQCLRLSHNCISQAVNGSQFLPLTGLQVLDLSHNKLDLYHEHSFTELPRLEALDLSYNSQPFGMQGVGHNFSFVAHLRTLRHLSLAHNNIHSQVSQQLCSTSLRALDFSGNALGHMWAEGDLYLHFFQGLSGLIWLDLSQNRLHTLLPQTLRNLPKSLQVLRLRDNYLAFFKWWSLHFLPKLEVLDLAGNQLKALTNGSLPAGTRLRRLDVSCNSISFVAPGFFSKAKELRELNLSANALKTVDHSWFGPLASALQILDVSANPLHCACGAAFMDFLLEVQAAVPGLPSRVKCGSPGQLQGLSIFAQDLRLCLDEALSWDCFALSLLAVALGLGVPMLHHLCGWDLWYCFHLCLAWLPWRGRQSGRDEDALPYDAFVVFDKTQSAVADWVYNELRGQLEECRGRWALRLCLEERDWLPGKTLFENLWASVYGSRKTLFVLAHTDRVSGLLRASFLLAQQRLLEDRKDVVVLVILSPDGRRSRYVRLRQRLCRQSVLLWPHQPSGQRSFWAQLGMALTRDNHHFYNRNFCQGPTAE
Protocol: TLR7/8/9 Inhibition Reporter Assays
HEK-Blue™-cells (Invivogen) overexpressing human TLR7, TLR8 or TLR9 receptors were used for screening inhibitors of these receptors using an inducible SEAP (secreted embryonic alkaline phosphatase) reporter gene under the control of the IFN-β minimal promoter fused to five NF-κB and AP-1-binding sites. Briefly, cells are seeded into Greiner 384 well plates (15000 cells per well for TLR7, 20,000 for TLR8 and 25,000 for TLR9) and then treated with test compounds in DMSO to yield a final dose response concentration range of 0.05 nM-50 μM. After a 30 minute compound pre-treatment at room temperature, the cells are then stimulated with a TLR7 ligand (gardiquimod at a final concentration of 7.5 μM), TLR8 ligand (R848 at a final concentration of 15.9 μM) or TLR9 ligand (ODN2006 at a final concentration of 5 nM) to activate NF-κB and AP-1 which induce the production of SEAP. After a 22 hour incubation at 37° C., 5% CO2, SEAP levels are determined with the addition of HEK-Blue™ Detection reagent (Invivogen), a cell culture medium that allows for detection of SEAP, according to manufacturer's specifications. The percent inhibition is determined as the % reduction in the HEK-Blue signal present in wells treated with agonist plus DMSO alone compared to wells treated with a known inhibitor.

Row | Structure (SMILES) | IC50 [µM]
1 | Cc1cc(-c2[nH]c3sc(C(=O)N4CCOCC4)nc3c2C(C)C)cn2ncnc12 [Example 398, (6-isopropyl-5-(8-methyl-[1,2,4]triazolo[1,5-a]pyridin-6-yl)-4H-pyrrolo[3,2-d]thiazol-2-yl)(morpholino)methanone] | > 50
2 | CC(C)c1c(-c2cn(C)c3ncccc23)[nH]c2sc(C3CCN(C(=O)CN(C)C)CC3)nc12 [Example 32, 2-(dimethylamino)-1-(4-(6-isopropyl-5-(1-methyl-1H-pyrrolo[2,3-b]pyridin-3-yl)-4H-pyrrolo[3,2-d]thiazol-2-yl)piperidin-1-yl)ethan-1-one] | > 50
3 | Cc1cc(-c2[nH]c3sc(C(=O)N4CCCOCC4)nc3c2C(C)C)cn2ncnc12 [Example 394, (6-isopropyl-5-(8-methyl-[1,2,4]triazolo[1,5-a]pyridin-6-yl)-4H-pyrrolo[3,2-d]thiazol-2-yl)(1,4-oxazepan-4-yl)methanone] | > 50
4 | Cc1c(-c2[nH]c3sc(N4CCN(CC(C)(C)O)C[C@@H]4C)nc3c2C(C)C)cn2ncnc2c1C [Example 345, (S)-1-(4-(5-(7,8-dimethyl-[1,2,4]triazolo[1,5-a]pyridin-6-yl)-6-isopropyl-4H-pyrrolo[3,2-d]thiazol-2-yl)-3-methylpiperazin-1-yl)-2-methylpropan-2-ol] | > 50
5 | CNC(=O)CN1CCN(c2nc3c(C(C)C)c(-c4cn5ncnc5c(C)c4C)[nH]c3s2)[C@H](C)C1 [Example 315, (R)-2-(4-(5-(7,8-dimethyl-[1,2,4]triazolo[1,5-a]pyridin-6-yl)-6-isopropyl-4H-pyrrolo[3,2-d]thiazol-2-yl)-3-methylpiperazin-1-yl)-N-methylacetamide] | > 50
6 | Cc1c(-c2[nH]c3sc(CNCC(N)=O)nc3c2C(C)C)cn2ncnc2c1C [Example 402, 2-(((5-(7,8-dimethyl-[1,2,4]triazolo[1,5-a]pyridin-6-yl)-6-isopropyl-4H-pyrrolo[3,2-d]thiazol-2-yl)methyl)amino)acetamide] | > 50
7 | CC(C)c1c(-c2cn(C)c3ncccc23)[nH]c2sc(C3CCN(C4COC4)CC3)nc12 [Example 34, 6-isopropyl-5-(1-methyl-1H-pyrrolo[2,3-b]pyridin-3-yl)-2-(1-(oxetan-3-yl)piperidin-4-yl)-4H-pyrrolo[3,2-d]thiazole] | > 50
8 | Cc1c(-c2[nH]c3sc(C(N)=O)nc3c2C(C)C)cn2ncnc2c1C [Example 385, 5-(7,8-dimethyl-[1,2,4]triazolo[1,5-a]pyridin-6-yl)-6-isopropyl-4H-pyrrolo[3,2-d]thiazole-2-carboxamide] | > 50
9 | Cc1c(-c2[nH]c3sc(C4CCN(CCS(C)(=O)=O)CC4)nc3c2C(C)C)cn2ncnc2c1C [Example 55, 5-(7,8-dimethyl-[1,2,4]triazolo[1,5-a]pyridin-6-yl)-6-isopropyl-2-(1-(2-(methylsulfonyl)ethyl)piperidin-4-yl)-4H-pyrrolo[3,2-d]thiazole] | > 50
10 | Cc1c(-c2[nH]c3sc(N4CC5(CN(CC6CCOCC6)C5)C4)nc3c2C(C)C)cn(C)c(=O)c1C [Example 307, 5-(6-isopropyl-2-(6-((tetrahydro-2H-pyran-4-yl)methyl)-2,6-diazaspiro[3.3]heptan-2-yl)-4H-pyrrolo[3,2-d]thiazol-5-yl)-1,3,4-trimethylpyridin-2 (1H)-one] | > 50
11 | Cc1c(-c2[nH]c3sc(N4CCN(C5CCC5)C[C@@H]4C)nc3c2C(C)C)cn2ncnc2c1C [Example 349] | > 50
12 | Cc1c(-c2[nH]c3sc(N4CCN(C5COC5)C[C@H]4C)nc3c2C(C)C)cn2ncnc2c1C [Example 316, (R)-5-(7,8-dimethyl-[1,2,4]triazolo[1,5-a]pyridin-6-yl)-6-isopropyl-2-(2-methyl-4-(oxetan-3-yl)piperazin-1-yl)-4H-pyrrolo[3,2-d]thiazole] | > 50
13 | Cc1c(-c2[nH]c3sc(CN4CCOCC4)nc3c2C(C)C)cn2ncnc2c1C [Example 407, 4-((5-(7,8-dimethyl-[1,2,4]triazolo[1,5-a]pyridin-6-yl)-6-isopropyl-4H-pyrrolo[3,2-d]thiazol-2-yl)methyl)morpholine] | > 50
14 | Cc1c(-c2[nH]c3sc(N4CCN(CC(N)=O)CC4)nc3c2C(C)C)cn2ncnc2c1C [Example 285, 2-(4-(5-(7,8-dimethyl-[1,2,4]triazolo[1,5-a]pyridin-6-yl)-6-isopropyl-4H-pyrrolo[3,2-d]thiazol-2-yl)piperazin-1-yl)acetamide] | > 50
15 | Cc1c(-c2[nH]c3sc(N4CC5(CN(CCS(C)(=O)=O)C5)C4)nc3c2C(C)C)cn(C)c(=O)c1C [Example 305, 5-(6-isopropyl-2-(6-(2-(methylsulfonyl)ethyl)-2,6-diazaspiro[3.3]heptan-2-yl)-4H-pyrrolo[3,2-d]thiazol-5-yl)-1,3,4-trimethylpyridin-2 (1H)-one] | > 50
16 | Cc1c(-c2[nH]c3sc(N4CCN(CCS(C)(=O)=O)CC4)nc3c2C(C)C)cn2ncnc2c1C [Example 282, 5-(7,8-dimethyl-[1,2,4]triazolo[1,5-a]pyridin-6-yl)-6-isopropyl-2-(4-(2-(methylsulfonyl)ethyl)piperazin-1-yl)-4H-pyrrolo[3,2-d]thiazole] | > 50

Results, then the molecule that gave them:

Row | IC50 [µM] | Structure (SMILES)
17 | > 50 | Cc1c(-c2[nH]c3sc(N4CC5(C4)CN(C4COC4)C5)nc3c2C(C)C)cn(C)c(=O)c1C [Example 306, 5-(6-isopropyl-2-(6-(oxetan-3-yl)-2,6-diazaspiro[3.3]heptan-2-yl)-4H-pyrrolo[3,2-d]thiazol-5-yl)-1,3,4-trimethylpyridin-2 (1H)-one]
18 | > 50 | Cc1c(-c2[nH]c3sc(C(=O)NCCCN4CCCC4=O)nc3c2C(C)C)cn2ncnc2c1C [Example 371, 5-(7,8-dimethyl-[1,2,4]triazolo[1,5-a]pyridin-6-yl)-6-isopropyl-N-(3-(2-oxopyrrolidin-1-yl)propyl)-4H-pyrrolo[3,2-d]thiazole-2-carboxamide]
19 | > 50 | Cc1c(-c2[nH]c3sc(C4CCN(C5COC5)CC4)nc3c2C(C)C)cn(C)c(=O)c1C [Example 60, 5-(6-isopropyl-2-(1-(oxetan-3-yl)piperidin-4-yl)-4H-pyrrolo[3,2-d]thiazol-5-yl)-1,3,4-trimethylpyridin-2 (1H)-one]
20 | > 50 | Cc1c(-c2[nH]c3sc(N4CCN(C5COC5)CC4)nc3c2C(C)C)cn2ncnc2c1C [Example 286, 5-(7,8-dimethyl-[1,2,4]triazolo[1,5-a]pyridin-6-yl)-6-isopropyl-2-(4-(oxetan-3-yl)piperazin-1-yl)-4H-pyrrolo[3,2-d]thiazole]
21 | > 50 | Cc1c(-c2[nH]c3sc(N4C[C@@H](C)N(CC(=O)N(C)C)C[C@@H]4C)nc3c2C(C)C)cn2ncnc2c1C [Example 335, 2-((2R,5S)-4-(5-(7,8-dimethyl-[1,2,4]triazolo[1,5-a]pyridin-6-yl)-6-isopropyl-4H-pyrrolo[3,2-d]thiazol-2-yl)-2,5-dimethylpiperazin-1-yl)-N,N-dimethylacetamide]
22 | > 50 | COC1CN(C(=O)c2nc3c(C(C)C)c(-c4cc(C)c5ncnn5c4)[nH]c3s2)C1 [Example 396, (6-isopropyl-5-(8-methyl-[1,2,4]triazolo[1,5-a]pyridin-6-yl)-4H-pyrrolo[3,2-d]thiazol-2-yl)(3-methoxyazetidin-1-yl)methanone]
23 | > 50 | Cc1cc(-c2[nH]c3sc(C(=O)NC4COC4)nc3c2C(C)C)cn2ncnc12 [Example 397, 6-isopropyl-5-(8-methyl-[1,2,4]triazolo[1,5-a]pyridin-6-yl)-N-(oxetan-3-yl)-4H-pyrrolo[3,2-d]thiazole-2-carboxamide]
24 | > 50 | Cc1c(-c2[nH]c3sc(C4CCN(C5COC5)CC4)nc3c2C(C)C)cn2ncnc2c1C [Example 43, 5-(7,8-dimethyl-[1,2,4]triazolo[1,5-a]pyridin-6-yl)-6-isopropyl-2-(1-(oxetan-3-yl)piperidin-4-yl)-4H-pyrrolo[3,2-d]thiazole]
